Experimental data as given in patent US20110130346A1, “PEPTIDE CONJUGATES FOR DELVERY OF BIOLOGICALLY ACTIVE COMPOUNDS” (ISIS INNOVATION LIMITED, priority 2008, published 2011).
Entries after “also recorded” stand apart in the source; their conditions may differ.

How the values were obtained:
glucose transporters = assay: Example 3: glucose transporter inhibitors and hexose analogues in glucose-enhanced 2′OMePS AO uptake into TA muscle; type: in vivo; details: 8 week old mdx mice; for effect of sugar or analogue used in place of D-glucose in 2′OMePS AO formulation on dystrophin-positive fibres: same concentration as D-glucose, intramuscular, two weeks; for effect of inhibitor on the enhancing effect of 5% D-glucose formulation of 2′OMePS AO: intramuscular into TA
Text: To investigate whether carrier-mediated glucose uptake might be implicated in the mechanism of enhanced AO uptake into muscle, we examined the effects of a range of glucose concentrations using glucose-formulated 2′OMePS AOs. This was studied again via intramuscular administration into 8 week old mdx mice. […] The activity of glucose transporters is known to be stereospecific in that only D-glucose isomers can be actively transported. To further test the idea carrier-mediated glucose uptake might be implicated in the mechanism and to rule out possible osmotic effects of the glucose formulation we investigated the activities of D- and L-glucose isomers in AO formulations. The same concentration of L-glucose was formulated with 2′OMePS AOs and delivered to 8 week old mdx mice by local intramuscular injection.
To investigate whether specific glucose transporters might be implicated directly in the mechanism of enhanced AO uptake we tested whether or not various inhibitors of glucose transporter function could abolish the enhanced uptake of 2′OMePS AOs into TA muscles in 8 week old mdx mice. Two inhibitor compounds, phloretin and phloridzin, are well-characterised inhibitors of glucose transport. […] That enhanced AO uptake and activity was dependent on a phloretin-sensitive pathway, is a hallmark of involvement of the GLUT family of facilitative glucose transporters. Given that glucose transporter-mediated glucose uptake appeared mechanistically important, we further investigated this by studying whether any products of intracellular glucose metabolism might be implicated downstream in the uptake mechanism. To do this we investigated a glucose analogue, 3-O-methyl glucose (3-OMG) that is effectively transported by glucose transporters but not subject to phosphorylation by glucokinase by using the same concentration of 3-OMG formulated with 2′OMePS AO. Two weeks following intramuscular injection TA muscles cryosections were assayed by immunohistochemistry.
For intramuscular studies the TA muscle of each experimental mdx mouse was injected with a 40 μl dose of PNA and PNA-peptide conjugates with saline at a final concentration of 125 μg/ml, and the contralateral muscle was injected with saline. For systemic intravenous injections, X μg PNA or PNA-peptide conjugates in 80 μl saline buffer were injected into tail vein of mdx mice at the final dose of 25 mg/kg and 6 mg/kg, respectively. The animals were killed at various time points after injection by CO2 inhalation and tissues were removed and snap-frozen in liquid nitrogen-cooled isopentane and stored at −80° C.
Sections of 8 μm were cut from at least two-thirds of the muscle length of TA, quadriceps, gastrocnemius, biceps, abdominal wall and diaphragm muscles and cardiac muscle at 100 μm intervals. The sections were then examined for dystrophin expression with a polyclonal antibody 2166 against the dystrophin carboxyl-terminal region. The maximum number of dystrophin-positive fibres in one section was counted using the Zeiss AxioVision fluorescence microscope. The intervening muscle sections were collected either for RT-PCR analysis and Western blot or as serial sections for immunohistochemistry. Polyclonal antibodies were detected by goat-anti-rabbit IgGs Alexa Fluro 594 (Molecular Probe, UK). Routine haematoxylin and eosin staining was used to examine overall muscle morphology and assess the level of infiltrating mononuclear cells. The serial sections were also stained with a panel of polyclonal and monoclonal antibodies for the detection of DAPC protein components. Rabbit polyclonal antibody to neuronal nitric oxide synthase (nNOS) and mouse monoclonal antibodies to β dystroglycan, α-sarcoglycan and β-sarcoglycan were used according to manufacturer's instructions (Novocastra, UK). Polyclonal antibodies were detected by goat-anti-rabbit IgGs Alexa 594 and the monoclonal antibodies by goat-anti-mouse IgGs Alexa 594 (Molecular Probe, UK). […]

[1] = system: exon and intron 23 of the dystrophin gene; assay: Example 1: intramuscular injection into TA muscle of mdx mice, count of dystrophin-positive fibres by immunohistochemistry; type: in vivo; details: for dose dependence of dystrophin induction: 5 μg, 10 μg and 20 μg intramuscular; for number of dystrophin-positive fibres per TA muscle: 20 μg intramuscular
Procedure: Three age groups of mdx mice were used: 20-21 days (referred to as 3 weeks; five mice for each test and control groups), 2-month old (five mice for test groups and control groups), and 5-6 months (referred to 6 months, six mice for each testing and control group). Mice were killed by cervical dislocation at desired time points, and muscles were snap-frozen in liquid nitrogen-cooled isopentane and stored at −80° C.
One tibialis anterior (TA) muscle of each experimental mdx mouse was injected with a 40 μl dose (3-week-old group injected with 10 μl) of PNA-peptide conjugates with saline at a final concentration of 125 μg/ml, and the contralateral muscle was injected with saline. The animals were sacrificed at various time points after injection, the muscles were removed and snap-frozen in liquid nitrogen-cooled isopentane and stored at −80° C. To examine the dose-response profile, 2-month old mdx mice received the injections of 10 μg and 20 μg of PNA-peptide conjugates.
Sections of 8 μm were cut from at least two-thirds of muscle length of TA muscles at 100 μm intervals. The sections were then examined for dystrophin expression with a polyclonal antibody 2166 against the dystrophin carboxyl-terminal dystrophin. The maximum number of dystrophin-positive fibres in one section was counted using the Zeiss AxioVision fluorescence microscope. The intervening muscle sections were collected either for Western blot or as serial sections for immunohistochemistry. Polyclonal antibodies were detected by goat-anti-rabbit IgGs Alexa Fluro 594 (Molecular probe). Routine H&E staining was used to examine overall muscle morphology and assess the level of infiltrating mononuclear cells.

[2] = system: exon 23 of the dystrophin transcript; assay: RT-PCR of exon 23 skipping after lipofectin transfection of H2K mdx cells; type: cell-based, mouse; details: 250 nm
Procedure: The H2K mdx myoblasts were cultured at 33° C. under a 10% CO2/90% air atmosphere in high-glucose DMEM supplemented with 20% fetal calf serum, 0.5% chicken embryo extract (PAA laboratories Ltd, Yeovil, UK), and 20 units/ml γ-interferon (Roche applied science, Penzberg, Germany). Cells were then treated with trypsin and plated at 2×10^4 cells per well in 24-well plates coated with 200 ug/ml gelatine (Sigma). H2K mdx cells were transfected 24 h after trypsin treatment in a final volume of 0.5 ml of antibiotic- and serum-free Opti-MEM (Life Technologies). Each well was treated with 250 nM of PNA-peptide complexed with corresponding amounts of lipofectin (weight ratio 1:2=oligolipofectin) (Life Technologies) according to the supplier's instructions. After 4 h of incubation, the transfection medium was replaced with DMEM supplemented medium.
Cells were transfected as triplicate wells with Lipofectin-Oligonucleotide complexes and total cellular RNA was then extracted 24 h after transfection with RNAeasy mini kit (Qiagen) and 200 ng of RNA template was used for 20 μl RT-PCR with OneStep RT-PCR kit (Qiagen, West Sussex, UK). The primer sequences for the initial RT-PCR were Exon20Fo 5′-[…]-3′ (SEQ ID NO: 125) and Ex26Ro 5′-[…]-3′ (SEQ ID NO: 126) for amplification of mRNA from exons 20 to 26. The cycling conditions were 95° C. for 30 sec, 55° C. for lmin, and 72° C. for 2 min for 30 cycles. […]

[3] = 2-month old mdx mice, 5 μg intramuscular
[4] = 2-month old mdx mice, single 5 μg intramuscular injection into TA, two weeks

Compound: OCC1OC(O)CC(O)C1O (stereo not drawn) [2-DG]
- effect of sugar or analogue used in place of D-glucose in 2′OMePS AO formulation on dystrophin-positive fibres (glucose transporters): abolished

Compound: CO[C@@H]([C@H](O)[C@H](O)CO)[C@@H](O)C=O [3-OMG, 3-O-methyl glucose]
- effect of sugar or analogue used in place of D-glucose in 2′OMePS AO formulation on dystrophin-positive fibres (glucose transporters): decrease in the number of dystrophin-positive fibres

Compound: CO[C@H]1O[C@H](CO)[C@H](O)[C@H](O)[C@H]1O [AMG]
- effect of sugar or analogue used in place of D-glucose in 2′OMePS AO formulation on dystrophin-positive fibres (glucose transporters): abolished

Compound: O=C[C@H](O)[C@@H](O)[C@@H](O)[C@H](O)CO [D-galactose]
- effect of sugar or analogue used in place of D-glucose in 2′OMePS AO formulation on dystrophin-positive fibres (glucose transporters): replicated

Compound: O=C[C@@H](O)[C@@H](O)[C@H](O)[C@H](O)CO [D-mannose]
- effect of sugar or analogue used in place of D-glucose in 2′OMePS AO formulation on dystrophin-positive fibres (glucose transporters): replicated

Compound: O=C[C@@H](O)[C@H](O)[C@@H](O)[C@@H](O)CO [L-glucose]
- effect of sugar or analogue used in place of D-glucose in 2′OMePS AO formulation on dystrophin-positive fibres (glucose transporters): significant decrease in number of dystrophin-positive myofibres

Compound: O=C(CCc1ccc(O)cc1)c1c(O)cc(O)cc1O [phloretin]
- effect of inhibitor on the enhancing effect of 5% D-glucose formulation of 2′OMePS AO (glucose transporters): completely abolished

Compound: O=C(CCc1ccc(O)cc1)c1c(O)cc(O)cc1O[C@@H]1O[C@H](CO)[C@@H](O)[C@H](O)[C@H]1O [phloridzin]
- effect of inhibitor on the enhancing effect of 5% D-glucose formulation of 2′OMePS AO (glucose transporters): partially but significantly abolished

Compound: ASSLNIA-S-S-Lggccaaacctcggcttacct [MSP]
- dystrophin-positive fibres observed (in words) [1, 3]: large number of dystrophin-positive fibres
- focal areas with strong dystrophin-positive muscle fibres [1, 3]: observed
- dose dependence of dystrophin induction ([1]; 2-month old mdx mice): not significant
- number of dystrophin-positive fibres ([1]; 6-month old mdx mice, single 5 μg intramuscular): 237±58

Compound: IVADNLQQQNTAPQIGTVNSQ-S-S-Lggccaaacctcggcttacct [AAV8]
- removal of exon 23 from the dystrophin transcript (RT-PCR) [2]: efficient removal of exon 23
- dystrophin-positive fibres observed (in words) [1, 3]: large number of dystrophin-positive fibres
- dose dependence of dystrophin induction ([1]; 2-month old mdx mice): significant difference between 10 μg and 5 μg injection; also recorded: no further increase
- number of dystrophin-positive fibres ([1]; 2-month old mdx mice, 10 μg intramuscular (printed 'bug')): 308±20
- number of dystrophin-positive fibres per TA muscle ([1]; 2-month old mdx mice): 282±63
- number of dystrophin-positive fibres [1, 4]: 171±40

Compound: TVAVNLQSSSTDPATGDVHVM-S-S-Lggccaaacctcggcttacct [AAV6]
- dystrophin-positive fibres in 3-week and 6-month old mice in comparison with 2-month old mice ([1]; 5 μg intramuscular): slightly fewer dystrophin-positive fibres
- dystrophin-positive fibres observed (in words) [1, 3]: large number of dystrophin-positive fibres
- focal areas with strong dystrophin-positive muscle fibres [1, 3]: observed
- dose dependence of dystrophin induction ([1]; 2-month old mdx mice): significant difference between 20 μg and 5, 10 μg injection
- number of dystrophin-positive fibres per TA muscle ([1]; 2-month old mdx mice): 424 (±86)
- number of dystrophin-positive fibres [1, 4]: 251
